The values that follow come from US12162820B2 (TAIWANJ PHARMACEUTICALS CO., LTD., priority 2019, dated 2024).

Molecules are shown by their SMILES.

What all share (assay type): biochemical
One test has as its target T1, HDAC2 (Homo sapiens, UniProt Q92769).
T1 construct: purchased Enzo Life Sciences
Put plainly: HDAC Inhibition Screening Assay (FLUOR DE LYS Fluorimetric Drug Discovery Kit), HDAC2. The following applies: for inhibition at 2 µM: 2 μM compound; for inhibition at 10 µM: 10 μM compound; for inhibition at 50 µM: 50 μM compound. In a few lines:
(§1)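 Recombinant HDAC1, HDAC2 or HDAC3 was incubated with an acetyl-lysine fluorogenic substrate, and a developer was then added to release the fluorophore. Compounds were tested at 2, 10 and 50 μM, with fluorescence read at 360 or 485 nm excitation and 460 or 530 nm emission. Activity was expressed as a percentage of basal control minus baseline.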

In the next test the target is T2, HDAC3 (Homo sapiens, UniProt O15379).
T2 construct: purchased Enzo Life Sciences
T2 sequence (O15379 whole entry): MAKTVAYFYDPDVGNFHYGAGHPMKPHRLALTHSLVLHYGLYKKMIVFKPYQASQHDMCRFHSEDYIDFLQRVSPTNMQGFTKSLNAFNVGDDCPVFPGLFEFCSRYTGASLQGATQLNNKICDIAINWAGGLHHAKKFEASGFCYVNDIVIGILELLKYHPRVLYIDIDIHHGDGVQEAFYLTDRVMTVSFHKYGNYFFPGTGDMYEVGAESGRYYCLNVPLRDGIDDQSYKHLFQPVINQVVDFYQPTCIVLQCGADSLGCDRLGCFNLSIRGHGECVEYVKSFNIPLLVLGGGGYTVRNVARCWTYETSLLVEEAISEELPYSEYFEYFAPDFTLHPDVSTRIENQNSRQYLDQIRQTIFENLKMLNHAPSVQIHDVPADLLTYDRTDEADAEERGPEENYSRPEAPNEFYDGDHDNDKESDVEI
T2 sequence (O75376 395-489 partner limits assumed): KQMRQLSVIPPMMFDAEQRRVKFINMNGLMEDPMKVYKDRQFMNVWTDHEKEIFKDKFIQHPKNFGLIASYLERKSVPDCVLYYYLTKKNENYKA
Put plainly: HDAC Inhibition Screening Assay (FLUOR DE LYS Fluorimetric Drug Discovery Kit), HDAC3. The following applies: for inhibition at 2 µM: 2 μM compound; for inhibition at 10 µM: 10 μM compound; for inhibition at 50 µM: 50 μM compound. An outline of the steps: as §1

The target in a further test is T3, ATX (autotaxin) (Homo sapiens, UniProt Q13822).
T3 construct: purchased Cayman 10803
Put plainly: Autotaxin Inhibition Screening Assay (choline release from LPC, LPC-CR). The following applies: for inhibition at 4 µM: 4 μM compound; for inhibition at 20 µM: 20 μM compound; for inhibition at 50 µM: 50 μM compound. An outline of the steps:
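Released choline from 100 μM 14:0 LPC, detected via choline oxidase–HRP–homovanillic acid fluorescence (320/450 nm) kinetically over 90 min, reports activity of 20 ng ATX. Buffer: 50 mM Tris pH 8.0, 50 mM CaCl2, 0.01% Triton X-100; test compounds 4, 20, 50 μM; percent inhibition from blank-subtracted slopes relative to vehicle.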

The next test concerns the target T4, HDAC1 (Homo sapiens, UniProt Q13547).
T4 construct: purchased Enzo Life Sciences
The test can be described thus: HDAC Inhibition Screening Assay (FLUOR DE LYS Fluorimetric Drug Discovery Kit), HDAC1. The following applies: for inhibition at 2 µM: 2 μM compound; for inhibition at 10 µM: 10 μM compound; for inhibition at 50 µM: 50 μM compound. In a few lines:
as §1

T1 sequence (Q92769 whole entry): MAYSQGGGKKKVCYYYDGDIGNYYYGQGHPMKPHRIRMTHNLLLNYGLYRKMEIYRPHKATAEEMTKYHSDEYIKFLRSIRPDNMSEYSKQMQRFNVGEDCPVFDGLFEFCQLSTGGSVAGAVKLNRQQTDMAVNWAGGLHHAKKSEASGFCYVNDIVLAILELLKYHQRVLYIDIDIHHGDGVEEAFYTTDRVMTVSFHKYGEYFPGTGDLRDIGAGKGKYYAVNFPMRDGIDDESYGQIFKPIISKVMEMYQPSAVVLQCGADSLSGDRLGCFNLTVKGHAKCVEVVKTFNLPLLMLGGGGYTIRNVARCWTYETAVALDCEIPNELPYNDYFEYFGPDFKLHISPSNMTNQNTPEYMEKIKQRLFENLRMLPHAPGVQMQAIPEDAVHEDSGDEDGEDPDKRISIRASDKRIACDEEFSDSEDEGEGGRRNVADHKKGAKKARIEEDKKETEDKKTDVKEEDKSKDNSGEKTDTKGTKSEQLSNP
T4 sequence (Q13547 whole entry): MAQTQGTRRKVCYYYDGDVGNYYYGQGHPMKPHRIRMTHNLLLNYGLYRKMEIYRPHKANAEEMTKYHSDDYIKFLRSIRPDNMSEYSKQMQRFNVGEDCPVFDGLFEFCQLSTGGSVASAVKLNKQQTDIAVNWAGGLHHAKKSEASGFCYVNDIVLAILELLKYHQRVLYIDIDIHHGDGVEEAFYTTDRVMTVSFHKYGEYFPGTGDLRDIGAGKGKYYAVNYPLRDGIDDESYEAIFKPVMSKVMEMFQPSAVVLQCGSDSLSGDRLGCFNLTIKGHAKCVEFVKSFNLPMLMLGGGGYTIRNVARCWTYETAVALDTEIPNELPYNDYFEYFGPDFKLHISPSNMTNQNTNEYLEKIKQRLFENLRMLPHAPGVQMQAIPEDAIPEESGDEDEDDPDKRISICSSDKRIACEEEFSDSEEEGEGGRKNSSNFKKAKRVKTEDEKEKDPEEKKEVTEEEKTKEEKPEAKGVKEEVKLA

A word on the inhibition: it is the percentage by which the read-out fell short of the control. Consider `O=C(NO)c1ccc(COc2ccc3c(c2)CC(Cc2cc(C(F)(F)F)cc(C(F)(F)F)c2)C3=O)cc1` (stereo not drawn) [Compound 77, 4-(((2-(3,5-bis(trifluoromethyl)benzyl)-1-oxo-2,3-dihydro-1H-inden-5-yl)oxy)methyl)-N-hydroxybenzamide], for which, on HDAC2, the inhibition at 2 µM was under 50%, the inhibition at 10 µM lay in the range of 50 to 80% and the inhibition at 50 µM lay in the range of 50 to 80%. Besides, at HDAC3, the inhibition at 2 µM was under 50%, the inhibition at 10 µM is under 50% and the inhibition at 50 µM is 50 to 80%. Moreover, on ATX (autotaxin), the inhibition at 4 µM is over 80%, the inhibition at 20 µM is over 80% and the inhibition at 50 µM was over 80%. For the same compound, on HDAC1, the inhibition at 2 µM was under 50%, the inhibition at 10 µM was under 50% and the inhibition at 50 µM is 50 to 80%.
`Nc1cc(F)ccc1NC(=O)CCCCCNC(=O)c1ccc2c(c1)CC/C(=C\c1cc(C(F)(F)F)cc(C(F)(F)F)c1)C2=O` [Compound 78]: at HDAC2, the inhibition at 2 µM was under 50%, the inhibition at 10 µM was under 50% and the inhibition at 50 µM was under 50%. On HDAC3, the inhibition at 2 µM was under 50%, the inhibition at 10 µM was under 50% and the inhibition at 50 µM is under 50%. In addition, on ATX (autotaxin), the inhibition at 4 µM was over 80%, the inhibition at 20 µM was over 80% and the inhibition at 50 µM was over 80%. In addition, at HDAC1, the inhibition at 2 µM was under 50%, the inhibition at 10 µM was under 50% and the inhibition at 50 µM is under 50%.
Regarding `O=C(CCCCCNC(=O)c1ccc2c(c1)CC/C(=C\c1cc(C(F)(F)F)cc(C(F)(F)F)c1)C2=O)NO` [Compound 79, (E)-6-(3,5-bis(trifluoromethyl)benzylidene)-N-(6-(hydroxyamino)-6-oxohexyl)-5-oxo-5,6,7,8-tetrahydronaphthalene-2-carboxamide], at HDAC2, the inhibition at 2 µM lay within 50 to 80%, the inhibition at 10 µM was over 80% and the inhibition at 50 µM was over 80%. On HDAC3, the inhibition at 2 µM was 50 to 80%, the inhibition at 10 µM is over 80% and the inhibition at 50 µM is over 80%. At ATX (autotaxin), this compound came in with an inhibition at 4 µM of over 80%, an inhibition at 20 µM of over 80% and an inhibition at 50 µM of over 80%. Further, on HDAC1, the inhibition at 2 µM lay within 50 to 80%, the inhibition at 10 µM is over 80% and the inhibition at 50 µM was over 80%.
On to `Nc1cc(F)ccc1NC(=O)CCCCNC(=O)c1ccc2c(c1)CC/C(=C\c1cc(C(F)(F)F)cc(C(F)(F)F)c1)C2=O` [Compound 80], for which, at HDAC2, the inhibition at 2 µM is under 50%, the inhibition at 10 µM is under 50% and the inhibition at 50 µM was under 50%. Moreover, at HDAC3, the inhibition at 2 µM is under 50%, the inhibition at 10 µM was under 50% and the inhibition at 50 µM is under 50%. On ATX (autotaxin), the inhibition at 4 µM is under 50%, the inhibition at 20 µM was under 50% and the inhibition at 50 µM fell in the range of 50 to 80%. On HDAC1, the inhibition at 2 µM is under 50%, the inhibition at 10 µM is under 50% and the inhibition at 50 µM was under 50%.
On to `O=C(CCCCNC(=O)c1ccc2c(c1)CC/C(=C\c1cc(C(F)(F)F)cc(C(F)(F)F)c1)C2=O)NO` [Compound 81, (E)-6-(3,5-bis(trifluoromethyl)benzylidene)-N-(5-(hydroxyamino)-5-oxopentyl)-5-oxo-5,6,7,8-tetrahydronaphthalene-2-carboxamide], for which, at HDAC2, the inhibition at 2 µM was under 50%, the inhibition at 10 µM is under 50% and the inhibition at 50 µM is 50 to 80%. Moreover, on HDAC3, the inhibition at 2 µM is under 50%, the inhibition at 10 µM lay in the range of 50 to 80% and the inhibition at 50 µM lay within 50 to 80%. At ATX (autotaxin), the inhibition at 4 µM is over 80%, the inhibition at 20 µM was over 80% and the inhibition at 50 µM was over 80%. On HDAC1, the inhibition at 2 µM is under 50%, the inhibition at 10 µM is under 50% and the inhibition at 50 µM fell in the range of 50 to 80%.
For the compound `Nc1cc(F)ccc1NC(=O)CCCCC(=O)N1CCN(C(=O)c2ccc3c(c2)CC/C(=C\c2cc(C(F)(F)F)cc(C(F)(F)F)c2)C3=O)CC1` [Compound 82, (E)-N-(2-amino-4-fluorophenyl)-6-(4-(6-(3,5-bis(trifluoromethyl)benzylidene)-5-oxo-5,6,7,8-tetrahydronaphthalene-2-carbonyl)piperazin-1-yl)-6-oxohexanamide], on HDAC2, the inhibition at 2 µM is under 50%, the inhibition at 10 µM was under 50% and the inhibition at 50 µM was under 50%. For the same compound, at HDAC3, the inhibition at 2 µM is under 50%, the inhibition at 10 µM is under 50% and the inhibition at 50 µM was in the range of 50 to 80%. On ATX (autotaxin), this compound came in with an inhibition at 4 µM of over 80%, an inhibition at 20 µM of over 80% and an inhibition at 50 µM of over 80%. At HDAC1, the inhibition at 2 µM is under 50%, the inhibition at 10 µM was under 50% and the inhibition at 50 µM was under 50%.
With `O=C(CCCCC(=O)N1CCN(C(=O)c2ccc3c(c2)CC/C(=C\c2cc(C(F)(F)F)cc(C(F)(F)F)c2)C3=O)CC1)NO` [Compound 83, (E)-6-(4-(6-(3,5-bis(trifluoromethyl)benzylidene)-5-oxo-5,6,7,8-tetrahydro-naphthalene-2-carbonyl)piperazin-1-yl)-N-hydroxy-6-oxohexanamide], at HDAC2, the inhibition at 2 µM was under 50%, the inhibition at 10 µM is under 50% and the inhibition at 50 µM is 50 to 80%. In addition, at HDAC3, the inhibition at 2 µM was under 50%, the inhibition at 10 µM was under 50% and the inhibition at 50 µM lay within 50 to 80%. On ATX (autotaxin), the inhibition at 4 µM is over 80%, the inhibition at 20 µM was over 80% and the inhibition at 50 µM is over 80%. At HDAC1, the inhibition at 2 µM is under 50%, the inhibition at 10 µM was under 50% and the inhibition at 50 µM was 50 to 80%.
